Assay results as given in patent publication US11713338B2, “Cyclic peptides multimers targeting α-4-β-7 integrin” (priority 2016, dated 2023).

The compounds below were run against T1, integrin α4β7 (RPMI8866 human cells adhering to MAdCAM-1) (Homo sapiens, UniProt P13612+P26010) (assay: Integrin α4β7-MAdCAM cell adhesion assay (RPMI8866 cells)). Settings: RPMI8866 cells adhering to MAdCAM; read-out: RPMI8866 Adhesion α4β7/MAdCAM IC50.
T1 construct: RMP18866 cells, which express integrin α4β7; host or cells: RPMI8866
T1 sequence (P13612 34-1032): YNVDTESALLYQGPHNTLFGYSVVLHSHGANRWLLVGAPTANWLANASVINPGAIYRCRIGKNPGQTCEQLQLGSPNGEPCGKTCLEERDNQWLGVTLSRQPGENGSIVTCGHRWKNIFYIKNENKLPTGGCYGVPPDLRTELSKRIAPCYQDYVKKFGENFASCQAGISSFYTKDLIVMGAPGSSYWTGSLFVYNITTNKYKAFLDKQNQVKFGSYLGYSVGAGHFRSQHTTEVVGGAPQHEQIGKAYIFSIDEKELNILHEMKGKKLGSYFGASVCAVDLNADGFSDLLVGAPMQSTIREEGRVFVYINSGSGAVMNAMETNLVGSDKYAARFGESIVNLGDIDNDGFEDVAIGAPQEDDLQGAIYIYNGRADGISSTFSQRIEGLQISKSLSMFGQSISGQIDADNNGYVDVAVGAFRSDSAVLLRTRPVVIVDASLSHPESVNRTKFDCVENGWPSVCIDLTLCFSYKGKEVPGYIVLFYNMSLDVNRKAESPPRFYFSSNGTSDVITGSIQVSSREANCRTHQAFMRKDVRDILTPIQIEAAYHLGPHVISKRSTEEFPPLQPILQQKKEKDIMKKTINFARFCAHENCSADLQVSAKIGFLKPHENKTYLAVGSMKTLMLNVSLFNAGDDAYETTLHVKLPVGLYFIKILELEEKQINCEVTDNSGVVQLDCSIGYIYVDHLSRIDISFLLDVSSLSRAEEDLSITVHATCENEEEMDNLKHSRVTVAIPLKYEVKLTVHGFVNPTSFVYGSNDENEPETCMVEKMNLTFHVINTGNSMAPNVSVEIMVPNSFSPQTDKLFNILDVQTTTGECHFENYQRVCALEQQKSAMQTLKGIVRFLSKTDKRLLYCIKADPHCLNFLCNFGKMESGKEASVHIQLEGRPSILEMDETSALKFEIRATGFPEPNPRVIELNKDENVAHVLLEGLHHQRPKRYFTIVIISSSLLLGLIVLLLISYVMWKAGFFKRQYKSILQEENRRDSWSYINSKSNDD
T1 sequence (P26010 20-798): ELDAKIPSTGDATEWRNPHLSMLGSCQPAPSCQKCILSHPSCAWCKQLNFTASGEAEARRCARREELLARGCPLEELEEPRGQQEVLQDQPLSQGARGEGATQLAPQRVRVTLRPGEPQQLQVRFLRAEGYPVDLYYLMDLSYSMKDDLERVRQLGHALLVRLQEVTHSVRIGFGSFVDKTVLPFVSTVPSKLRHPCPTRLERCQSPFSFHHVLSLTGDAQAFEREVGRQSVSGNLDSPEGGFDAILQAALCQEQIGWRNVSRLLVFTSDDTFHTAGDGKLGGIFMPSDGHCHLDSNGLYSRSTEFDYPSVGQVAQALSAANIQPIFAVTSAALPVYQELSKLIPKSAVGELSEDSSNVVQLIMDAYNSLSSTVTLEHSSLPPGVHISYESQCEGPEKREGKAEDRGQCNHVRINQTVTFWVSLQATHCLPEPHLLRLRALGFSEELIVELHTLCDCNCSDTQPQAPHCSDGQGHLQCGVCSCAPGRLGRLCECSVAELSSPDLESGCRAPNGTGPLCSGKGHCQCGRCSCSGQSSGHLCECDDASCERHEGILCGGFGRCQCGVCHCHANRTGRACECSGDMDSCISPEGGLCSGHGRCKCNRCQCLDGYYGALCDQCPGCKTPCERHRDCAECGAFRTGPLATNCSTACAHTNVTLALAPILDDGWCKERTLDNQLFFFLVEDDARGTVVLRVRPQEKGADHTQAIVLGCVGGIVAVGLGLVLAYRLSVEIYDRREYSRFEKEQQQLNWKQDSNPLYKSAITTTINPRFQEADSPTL
Type: cell-based
Procedure, shortened: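 RPMI8866 cells were loaded with […] calcein in PBS for 30 min at 37° C. After plate washes with PBS, fluorescence of adherent cells was read, and no-cell control wells were subtracted from each test well to build the dose response.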

`CC(C)C[C@@H]1NC(=O)c2ccc(-c3ccc(N4CCN(C(=O)[C@H]5CCC[C@H]5C(=O)N5CCN(c6ccc(-c7ccc8cc7CNC(=O)[C@@H]7CCCN7[C@H](C(=O)NC(C)(C)C)[C@H](C)NC(=O)[C@H]([C@@H](C)O)NC(=O)[C@H](CC(=O)O)NC(=O)[C@H](CC(C)C)NC8=O)cc6)CC5)CC4)cc3)c(c2)CNC(=O)[C@@H]2CCCN2[C@H](C(=O)NC(C)(C)C)[C@H](C)NC(=O)[C@H]([C@@H](C)O)NC(=O)[C@H](CC(=O)O)NC1=O` [Compound 458] and `CC(C)C[C@@H]1NC(=O)c2ccc(-c3ccc(N4CCN(C(=O)C[C@@H](N)C(=O)N5CCN(c6ccc(-c7ccc8cc7CNC(=O)[C@@H]7CCCN7[C@H](C(=O)NC(C)(C)C)[C@H](C)NC(=O)[C@H]([C@@H](C)O)NC(=O)[C@H](CC(=O)O)NC(=O)[C@H](CC(C)C)NC8=O)cc6)CC5)CC4)cc3)c(c2)CNC(=O)[C@@H]2CCCN2[C@H](C(=O)NC(C)(C)C)[C@H](C)NC(=O)[C@H]([C@@H](C)O)NC(=O)[C@H](CC(=O)O)NC1=O` [Compound 493] are within 1.5-fold of each other in IC50: 42 nM for the first, 45 nM for the second.

First: CC(C)C[C@@H]1NC(=O)c2ccc(-c3ccc(N4CCN(C(=O)CC[C@H](N)C(=O)N5CCN(c6ccc(-c7ccc8cc7CNC(=O)[C@@H]7CCCN7[C@H](C(=O)NC(C)(C)C)[C@H](C)NC(=O)[C@H]([C@@H](C)O)NC(=O)[C@H](CC(=O)O)NC(=O)[C@H](CC(C)C)NC8=O)cc6)CC5)CC4)cc3)c(c2)CNC(=O)[C@@H]2CCCN2[C@H](C(=O)NC(C)(C)C)[C@H](C)NC(=O)[C@H]([C@@H](C)O)NC(=O)[C@H](CC(=O)O)NC1=O [Compound 494]
Second: CC(C)C[C@@H]1NC(=O)c2ccc(-c3ccc(N4CCN(C(=O)CCCCCCCCCCC(=O)N5CCN(c6ccc(-c7ccc8cc7CNC(=O)[C@@H]7CCCN7[C@H](C(=O)NC(C)(C)C)[C@H](C)NC(=O)[C@H]([C@@H](C)O)NC(=O)[C@H](CC(=O)O)NC(=O)[C@H](CC(C)C)NC8=O)cc6)CC5)CC4)cc3)c(c2)CNC(=O)[C@@H]2CCCN2[C@H](C(=O)NC(C)(C)C)[C@H](C)NC(=O)[C@H]([C@@H](C)O)NC(=O)[C@H](CC(=O)O)NC1=O [Compound 392]
The IC50 of the first is 1.8-fold higher: 50 nM for the first, 28 nM for the second. The second is the more potent here.

`CC(C)C[C@@H]1NC(=O)C[C@H](CCCCN)N(C)C(=O)[C@H](CCCCNC(=O)c2ccccc2-c2ccccc2C(=O)NCCCC[C@@H]2NC(=O)[C@@H]3CCCN3[C@H](C(=O)NC(C)(C)C)[C@H](C)NC(=O)[C@H]([C@@H](C)O)NC(=O)[C@H](CC(=O)O)NC(=O)[C@H](CC(C)C)NC(=O)C[C@H](CCCCN)N(C)C2=O)NC(=O)[C@@H]2CCCN2[C@H](C(=O)NC(C)(C)C)[C@H](C)NC(=O)[C@H]([C@@H](C)O)NC(=O)[C@H](CC(=O)O)NC1=O` [Compound 535] and `CC(C)C[C@@H]1NC(=O)C[C@H](CCCCN)N(C)C(=O)[C@H](CCCCNC(=O)CCCCCCCCC(=O)NCCCC[C@@H]2NC(=O)[C@@H]3CCCN3[C@H](C(=O)NC(C)(C)C)[C@H](C)NC(=O)[C@H]([C@@H](C)O)NC(=O)[C@H](CC(=O)O)NC(=O)[C@H](CC(C)C)NC(=O)C[C@H](CCCCN)N(C)C2=O)NC(=O)[C@@H]2CCCN2[C@H](C(=O)NC(C)(C)C)[C@H](C)NC(=O)[C@H]([C@@H](C)O)NC(=O)[C@H](CC(=O)O)NC1=O` [Compound 530] are the same in IC50: 15 nM for the first, 15 nM for the second.

Going from `CC(C)C[C@@H]1NC(=O)c2ccc(-c3ccc(N4CCN(C(=O)CCOCCOCCNC(=O)CCCCCC(=O)NCCOCCOCCC(=O)N5CCN(c6ccc(-c7ccc8cc7CNC(=O)[C@@H]7CCCN7[C@H](C(=O)NC(C)(C)C)[C@H](C)NC(=O)[C@H]([C@@H](C)O)NC(=O)[C@H](CC(=O)O)NC(=O)[C@H](CC(C)C)NC8=O)cc6)CC5)CC4)cc3)c(c2)CNC(=O)[C@@H]2CCCN2[C@H](C(=O)NC(C)(C)C)[C@H](C)NC(=O)[C@H]([C@@H](C)O)NC(=O)[C@H](CC(=O)O)NC1=O` [Compound 505] to `CC(C)C[C@@H]1NC(=O)c2ccc(-c3ccc(N4CCN(C(=O)CCOCCOCCOCCOCCOCCOCCOCCOCCOCCOCCC(=O)N5CCN(c6ccc(-c7ccc8cc7CNC(=O)[C@@H]7CCCN7[C@H](C(=O)NC(C)(C)C)[C@H](C)NC(=O)[C@H]([C@@H](C)O)NC(=O)[C@H](CC(=O)O)NC(=O)[C@H](CC(C)C)NC8=O)cc6)CC5)CC4)cc3)c(c2)CNC(=O)[C@@H]2CCCN2[C@H](C(=O)NC(C)(C)C)[C@H](C)NC(=O)[C@H]([C@@H](C)O)NC(=O)[C@H](CC(=O)O)NC1=O` [Compound 511], the IC50 falls from 59 nM to 30 nM (2-fold).

Compared with `CC(C)C[C@@H]1NC(=O)C[C@H](CCCCN)N(C)C(=O)[C@H](CCCCNC(=O)c2cc(C(=O)NCCCC[C@@H]3NC(=O)[C@@H]4CCCN4[C@H](C(=O)NC(C)(C)C)[C@H](C)NC(=O)[C@H]([C@@H](C)O)NC(=O)[C@H](CC(=O)O)NC(=O)[C@H](CC(C)C)NC(=O)C[C@H](CCCCN)N(C)C3=O)cc(C(=O)NCCCC[C@@H]3NC(=O)[C@@H]4CCCN4[C@H](C(=O)NC(C)(C)C)[C@H](C)NC(=O)[C@H]([C@@H](C)O)NC(=O)[C@H](CC(=O)O)NC(=O)[C@H](CC(C)C)NC(=O)C[C@H](CCCCN)N(C)C3=O)c2)NC(=O)[C@@H]2CCCN2[C@H](C(=O)NC(C)(C)C)[C@H](C)NC(=O)[C@H]([C@@H](C)O)NC(=O)[C@H](CC(=O)O)NC1=O` [Compound 538], `CC(C)C[C@@H]1NC(=O)c2ccc(-c3ccc(N4CCN(C(=O)c5cc(C(=O)N6CCN(c7ccc(-c8ccc9cc8CNC(=O)[C@@H]8CCCN8[C@H](C(=O)NC(C)(C)C)[C@H](C)NC(=O)[C@H]([C@@H](C)O)NC(=O)[C@H](CC(=O)O)NC(=O)[C@H](CC(C)C)NC9=O)cc7)CC6)cc(C(=O)N6CCN(c7ccc(-c8ccc9cc8CNC(=O)[C@@H]8CCCN8[C@H](C(=O)NC(C)(C)C)[C@H](C)NC(=O)[C@H]([C@@H](C)O)NC(=O)[C@H](CC(=O)O)NC(=O)[C@H](CC(C)C)NC9=O)cc7)CC6)c5)CC4)cc3)c(c2)CNC(=O)[C@@H]2CCCN2[C@H](C(=O)NC(C)(C)C)[C@H](C)NC(=O)[C@H]([C@@H](C)O)NC(=O)[C@H](CC(=O)O)NC1=O` [Compound 520] is 2.2-fold lower in IC50: 13 nM for the first, 6 nM for the second. The second is the more potent here.

Compared with `CC(C)C[C@@H]1NC(=O)c2ccc(-c3ccc(N4CCN(C(=O)c5ccc(-c6ccc(C(=O)N7CCN(c8ccc(-c9ccc%10cc9CNC(=O)[C@@H]9CCCN9[C@H](C(=O)NC(C)(C)C)[C@H](C)NC(=O)[C@H]([C@@H](C)O)NC(=O)[C@H](CC(=O)O)NC(=O)[C@H](CC(C)C)NC%10=O)cc8)CC7)cc6)cc5)CC4)cc3)c(c2)CNC(=O)[C@@H]2CCCN2[C@H](C(=O)NC(C)(C)C)[C@H](C)NC(=O)[C@H]([C@@H](C)O)NC(=O)[C@H](CC(=O)O)NC1=O` [Compound 474], `CC(C)C[C@@H]1NC(=O)c2ccc(-c3ccc(N4CCN(Cc5cccc(CN6CCN(c7ccc(-c8ccc9cc8CNC(=O)[C@@H]8CCCN8[C@H](C(=O)NC(C)(C)C)[C@H](C)NC(=O)[C@H]([C@@H](C)O)NC(=O)[C@H](CC(=O)O)NC(=O)[C@H](CC(C)C)NC9=O)cc7)CC6)c5)CC4)cc3)c(c2)CNC(=O)[C@@H]2CCCN2[C@H](C(=O)NC(C)(C)C)[C@H](C)NC(=O)[C@H]([C@@H](C)O)NC(=O)[C@H](CC(=O)O)NC1=O` [Compound 499] is 3-fold higher in IC50: 14 nM for the first, 42 nM for the second. The first is the more potent here.

`CC(C)C[C@@H]1NC(=O)c2ccc(-c3ccc(N4CCN(c5ncc([N+](=O)[O-])c(N6CCN(c7ccc(-c8ccc9cc8CNC(=O)[C@@H]8CCCN8[C@H](C(=O)NC(C)(C)C)[C@H](C)NC(=O)[C@H]([C@@H](C)O)NC(=O)[C@H](CC(=O)O)NC(=O)[C@H](CC(C)C)NC9=O)cc7)CC6)n5)CC4)cc3)c(c2)CNC(=O)[C@@H]2CCCN2[C@H](C(=O)NC(C)(C)C)[C@H](C)NC(=O)[C@H]([C@@H](C)O)NC(=O)[C@H](CC(=O)O)NC1=O` [Compound 468] was tested, and the IC50 was 13 nM.
